Experimental data as given in ChEMBL document CHEMBL3822437, “N,N-Bis(glycityl)amines as anti-cancer drugs” (Bioorg Med Chem, 2016).

Columns and labels:
[1] = Selectivity index, ratio of IC50 for human SVGp12 cells to IC50 for human LN18 cells; assay type: functional
[2] = cells; details: Homo sapiens, HL-60, 48 h
Description: Antiproliferative activity against human HL60 cells after 48 hrs by MTT assay

[3] = Antiproliferative activity against human SVGp12 cells after 48 hrs by MTT assay; assay type: cell-based; details: SVGp12, 48 h
[4] = Antiproliferative activity against human LN18 cells after 48 hrs by MTT assay; assay type: functional, cell-based; details: LN-18, 48 h
[5] = test system: HEK293; experiment: Selectivity index, ratio of IC50 for HEK293 cells to IC50 for human HL60 cells; assay type: functional
[6] = test system: HEK293; experiment: Antiproliferative activity against HEK293 cells after 48 hrs by MTT assay; assay type: cell-based; details: Homo sapiens, HEK293, 48 h
[7] = Antiproliferative activity against human THP1 cells after 48 hrs by MTT assay; assay type: functional, cell-based; details: THP-1, 48 h

Compound | IC50 [2] [µM] | Ratio IC50 [1] | IC50 [3] [µM] | IC50 [4] [µM] | Ratio IC50 [5] | IC50 [6] [µM] | IC50 [7] [µM]
OC[C@@H](O)[C@@H](O)[C@H](O)[C@@H](O)CN(CCc1ccccc1)C[C@H](O)[C@@H](O)[C@H](O)[C@H](O)CO | 91.3 | 0.731 | 212 | 290 |  |  | 
OC[C@@H](O)[C@@H](O)[C@@H](O)CN(CCc1ccccc1)C[C@H](O)[C@H](O)[C@H](O)CO | 89.4 |  |  | 205 |  |  | 
OC[C@@H](O)[C@H](O)[C@@H](O)CN(CCc1ccccc1)C[C@H](O)[C@@H](O)[C@H](O)CO | 136 |  |  | 255 | 1.58 | 215 | 
C[S+](C)[O-] [DIMETHYL SULFOXIDE] | 108 | 1.03 | 229 | 223 | 2.15 | 232 | 119
COc1cccc2c1C(=O)c1c(O)c3c(c(O)c1C2=O)C[C@@](O)(C(=O)CO)C[C@@H]3O[C@H]1C[C@H](N)[C@H](O)[C@H](C)O1 [DOXORUBICIN] | 5.5 |  | 4.21 | 68.9 |  | 44.4 | 7.19

The next lines start with results.

IC50 [2] [µM] | Compound | Ratio IC50 [1] | IC50 [3] [µM] | IC50 [4] [µM] | Ratio IC50 [5] | IC50 [6] [µM] | IC50 [7] [µM]
6.44 | CCCCCCCCCCCCCCCCN(CC[C@H](O)[C@H](O)CO)CC[C@H](O)[C@H](O)CO | 0.872 | 26.6 | 30.5 | 4.83 | 31.1 | 
121 | OC[C@@H](O)[C@@H](O)[C@H](O)CN(CCc1ccccc1)C[C@@H](O)[C@H](O)[C@H](O)CO | 0.864 | 222 | 257 | 1.9 | 230 | 
6.66 | CCCCCCCCCCCCCCCCN(CC[C@@H](O)[C@H](O)[C@H](O)CO)CC[C@@H](O)[C@H](O)[C@H](O)CO |  |  | 50.6 |  |  | 
